Experimental data: patent publication US20050233984A1, “Composition for preventing or treating degenerative brain diseases comprising a hydrolysate of ginsenosides” (Digital Biotech Co., Ltd., priority 2002, published 2005)

What was measured:
[1] = tested on: neuroblastoma B103 cell line; assay: MTT test: apoptosis induced by staurosporin; format: cell-based; settings: B103 cells, staurosporin-only control = 100%
Procedure: (§1) 5×10^3 cells of neuroblastoma B103 cell line (donated by Dr. David Schubert of the Salk Institute, USA) were placed in each well of a 96-well plate with 100 μl of DMEM (Dulbecco's Minimal Eagle's Medium) containing 10% fetal bovine serum (FBS), and cultured at 37° C. under 8% CO2 for 1 day. After changing the medium to serum-free DMEM, the cells were treated with various concentrations of test compounds and, 1 hour later, with 25 μM of beta-amyloid (25-35 peptide; US peptide, CA, USA). The cells were cultured at 37° C. for 18 hours, treated with 15 μl of MTT solution [10 mg/ml solution of 3-(4,5-dimethyl-2-thiazolyl)-2,5-diphenyl-2H-tetrazolium bromide in phosphate buffered saline (PBS)], and allowed to react at 37° C. for 3 to 4 hours. 100 μl of lysis buffer (10% SDS, 50% dimethylformamide, pH 4.7) was added to the wells, and the cells were cultured overnight at room temperature and relative humidity of 90%. Optical density (OD) of each well was measured at […] and 630 nm, respectively, using a scanning multiwell spectrophotometer, and then the OD value at 630 nm was subtracted from that at 570 nm.
Further, in order to examine whether compounds originating from ginseng can block apoptosis, […], and the survival rates of the neural cells were determined.

[2] = tested on: neuroblastoma B103 cell line; assay: MTT test: anti-oxidative effect, H2O2 in place of beta-amyloid; format: cell-based; settings: B103 cells, H2O2-only control = 100%
Procedure: as §1
In order to examine whether compounds originating from ginseng can block oxidative stress, the procedure of Example 1 was repeated except for using 1 μM of H2O2 in place of beta-amyloid, and the survival rates of the neural cells were determined.

[3] = Degree of BBB penetration: pharmacokinetics in blood and brain by LC-mass; format: in vivo, Sprague-Dawley rat; settings: SD rat; for detection of the peak in the brain tissue sample: 15 minutes after administration of 1 mg/kg of Rg1 or Rb1, FIGS. 10a and 10b
Procedure: A male Sprague-Dawley rat (weight 250-300 g) was lightly anesthetized with ether and catheterized with a polyethylene tube (PE-50) in the femoral artery and vein. After the rat recovered, a saline solution containing 1 mg/kg of Rg1 or Rb1 was administered into the femoral vein through the intravenous bolus administration. 300 μl blood samples were collected from the rat's femoral artery at 2, 5, 10, 15, 20, 30, 45 and 60 minutes after the administration. Each blood sample was centrifuged to obtain 100 μl of plasma. A plasma sample was prepared as in (2) of step 1 with the plasma. 20 μl of the sample was injected into the LC mass system as in Step 1, and ginsenosides Rg1 and Rb1 and their metabolites PPD and PPT were quantified. The plasma concentrations of ginsenosides and their metabolites were calculated in the forms of weight per plasma (ml) (in case of ginsenosides) or peak size (in case of metabolites).
Immediately after collecting the blood samples, the rats were decapitated and brain tissues were obtained therefrom. The tissues were rinsed with ice-cooled saline, placed in a 15 ml Falcon tube and then weighed precisely. Acetonitrile was added to the tube in an amount twice the weight of the tissue sample, and the sample was homogenized using a tissue homogenizer (Ultra-Turrax T25, JANKE&KUNKEL IKA-Labortechnik). The mixture was centrifuged at 3,000 rpm for 20 minutes. 300 μl of the resulting supernatant was dried in a speed-vac, and 300 μl of acetonitrile was added thereto. 20 μl of the resulting mixture was injected in the LC mass system as in Step 1 to quantify the concentrations of ginsenosides and their metabolites in the brain, and the measured concentrations were represented by weight per gram of the brain tissue or peak size.
Separation and detection conditions for ginsenosides Rg1 and Rb1 were as described in Step 1, and those for metabolites PPD and PPT were as follows:
The transfer rate of the substances into the brain (Kbrain) can be represented by the ratio of the mean concentration of the substance in the brain (Cmean,brain) to the mean plasma concentration (Cmean,plasma) as in Equation 1. [formula]
The mean concentration of a substance can be determined by dividing the area under the concentration-time curve corresponding to time 0 to t by t and, accordingly, the transfer rate of the substance into the brain (Kbrain) can be calculated by Equation 2 shown below. [formula]

synaptophysin = assay: Synaptic density: synaptophysin in hippocampus and cortex by Western blotting; format: in vivo; settings: 0.5 mg/kg intraperitoneally once a day for 4 days, C57BL/6 mice
Procedure: 1 mg/kg of ginsenoside Rc or Mc, or compound Y or K, or 0.5 mg/kg of PPD or PPT was intraperitoneally administered to C57BL/6 mice (9-week old, weight: about 25 g) once a day for 4 days. Then, the brain of the mouse was removed and the hippocampus and cortex were separated therefrom. The amounts of synaptophysin, a protein marker of synaptic vesicle, in the hippocampus and cortex were quantified with Western blotting and an image analysis with a densitometer (LAS100, Fujifilm, Japan) employing a synaptophysin-specific antibody (Cat #902 314, Boehringer Mannheim, Germany).

α-secretase = assay: sAPPα secretion by Western blotting in B103 cells; format: cell-based; settings: 1 μM, 18 hours, compared with untreated control, FIG. 5
Procedure: In order to examine whether the ginseng-originated compounds can inhibit beta-amyloid production, the activity of α-secretase, which cleaves beta-amyloid, was examined.
1×10^6 cells of neuroblastoma B103 cell line (donated by Dr. David Schubert of the Salk Institute, USA), which secretes APP (amyloid precursor protein), were plated on a […] with 100 μl of DMEM medium containing 10% FBS (Fetal Bovine Serum) and cultured overnight at […] under 8% CO2. The medium was replaced with serum-free DMEM (Gibco, USA), and PPD, PPT or PDBu (phorbol-12, 13-dibutyrate: Sigma Co., USA) was added thereto at a concentration of 1 μM each. The cells were cultured further for 18 hours. The supernatant was isolated from each culture solution and concentrated through a concentration filter (viva spin centricon, obtained from: Vivascience, Binbrook Hill, Binbrook, England). The concentrate was prepared to have a protein concentration of 2 μg/ml and then subjected to electrophoresis on a 8% SDS-PAGE gel.
Protein bands on the gel were transferred to PVDF (polyvinylidene fluoride) membrane (Millipore Co., Bedford, Mass., USA) and blocked with 5% skim milk. The bands on PVDF were reacted with sAPPα-specific antibody 6E10 (1:2000 dilution, Cat. No. 320-05, Senetek, Maryland heights, Mo., USA) at room temperature for 2 hours. […] The protein bands were then quantified via image analysis.

[4] = test compound 1 μM + 0.1 μM staurosporin
[5] = test compound 1 μM alone, without staurosporin
[6] = test compound 1 μM alone, without H2O2

Compound | Survival rate (%) [1, 4] | Survival rate (%) [1, 5] | Survival rate (%) ([2]; test compound 1 μM + 1 μM H2O2) | Survival rate (%) [2, 6] | detection of the peak in the brain tissue sample [3] | amount of synaptophysin in cortex (synaptophysin) | amount of synaptophysin in hippocampus (synaptophysin) | sAPPα secretion level (α-secretase) | Survival rate (%) ([1]; test compound 10 μM + 0.1 μM staurosporin) | Survival rate (%) ([1]; test compound 10 μM alone, without staurosporin) | Survival rate (%) ([2]; test compound 10 μM + 1 μM H2O2) | Survival rate (%) ([2]; test compound 10 μM alone, without H2O2) | transfer rate into the brain (Kbrain) ([3]; calculated with Equations 1 and 2 (mean brain / mean plasma concentration)) | concentration in the plasma versus the brain tissue (in words) ([3]; metabolite after 1 mg/kg intravenous ginsenoside, FIG. 12)
CC(C)=CCCC(C)(O)[C@H]1CC[C@]2(C)[C@@H]1[C@H](O)C[C@@H]1[C@@]3(C)CC[C@H](O)C(C)(C)[C@@H]3CC[C@]12C (stereo in doubt) [PPD, protopanaxadiol] | 89.2 ± 1.0% | 176.5 ± 3.5% | 219.6 ± 3.0% | 494.3 ± 3.5% | well detected | no change | significantly increased | higher |  |  |  |  |  | 
CC(C)=CCC[C@](C)(O)[C@H]1CC[C@]2(C)[C@@H]1[C@H](O)C[C@@H]1[C@@]3(C)CC[C@H](O)C(C)(C)[C@@H]3[C@@H](O)C[C@]12C [PPT, protopanaxatriol] | 107.8 ± 2.3% | 169.7 ± 1.6% | 381.3 ± 0.9% | 516.1 ± 1.6% | well detected | no change | significantly increased | higher | 104.6 ± 2.7% | 173.1 ± 1.2% | 457.8 ± 2.5% | 516.5 ± 1.2% | 130±46.4% | almost identical
